According to ChEMBL document CHEMBL5606459, “ASAP - WNV NS2B-NS3 protease fluorescence single point” (2024):

Assays:
NS3 (West Nile virus) [1] = target: T1, NS3 (West Nile virus) (UniProt K4FQI5); test: (§1) Functional biochemical assay to identify treatments for viral infectious disease that targets West Nile NS2B-NS3 protease. Utilizing a direct enzyme activity measurement method, reading the fluorescence intensity is used to characterize the relative potency of inhibitors as % inhibition. Synthetic construct has been made based on West Nile virus (strain NY-99) by Centre for Medicines Discovery, University of Oxford, and the assay has been performed by Stanford University.The protocol is publicly available: dx.doi.org/10.17504/protocols.io.ewov1dy37vr2/v1; conditions: Concentration 50.0 uM, Number of replicates 1.0
T1 sequence (whole entry): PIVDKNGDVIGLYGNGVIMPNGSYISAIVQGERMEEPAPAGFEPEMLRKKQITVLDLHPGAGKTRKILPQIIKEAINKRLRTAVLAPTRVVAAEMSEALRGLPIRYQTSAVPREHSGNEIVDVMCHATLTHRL

NS3 (West Nile virus) [2] = target: T1, NS3 (West Nile virus); test: as §1, with “Weizmann Institute of Science.The” for “Stanford University.The”, “dx.doi.org/10.17504/protocols.io.q26g7yebkgwz/v3” for “dx.doi.org/10.17504/protocols.io.ewov1dy37vr2/v1”

SMILES | inhibition (NS3 (West Nile virus) [1]) | also measured
Cc1nc(C=O)c2ccccn12 | 33.8% | 
Cc1c(C=O)c2ccccn2c1C#N | 49.8% | 
CN(C)c1ccc(C=C(C#N)C(N)=O)cc1 | 38.2% | 
CC[C@H]1CO[C@H](C)CN1c1ccc(C=O)cn1 | 61.8% | 
O=Cc1ccc(N2CCC(C(=O)O)CC2)cc1 | 69.5% | 
O=Cc1ccc(N2CCCCCC2)cc1 | 57% | 
O=Cc1ccc(N2CCC(C(=O)O)CC2)o1 | 65.4% | 
Nc1ccc2ccc(B(O)O)cc2c1 | -5.6% | 
O=Cc1nc(-c2ccccc2Cl)n2ccccc12 | 41% | 
N=C(N)NCCC[C@H](NC(=O)c1nccs1)C(=O)N[C@@H](CCCCN)C(=O)N[C@@H](C(N)=O)c1ccc(OCc2ccc(C(F)(F)F)cc2)cc1 |  | inhibition (NS3 (West Nile virus) [2]; Concentration 50.0 uM, Number of replicates 2.0, Standard deviation 2.0262748168953313 %): 80.2%; inhibition (NS3 (West Nile virus) [2]; Concentration 100.0 uM, Number of replicates 2.0, Standard deviation 12.945380917885936 %): 119%
Cc1c(C=O)c2ccccn2c1C(=O)c1ccncc1 | 63.6% | 
Cc1cc(NS(=O)(=O)c2ccc(S(=O)(=O)F)cc2)c[nH]c1=O | 14.8% | 
O=Cc1ccc(N2CCCCC2)cc1 | 36.7% | 
O=C1c2c(O)ccc([N+](=O)[O-])c2C(=O)c2c([N+](=O)[O-])ccc(O)c21 |  | inhibition (NS3 (West Nile virus) [2]; Concentration 50.0 uM, Number of replicates 2.0, Standard deviation 6.952329816266579 %): 4.86%; inhibition (NS3 (West Nile virus) [2]; Concentration 100.0 uM, Number of replicates 2.0, Standard deviation 1.865400633304037 %): 22.8%
